The target in one data set is T1, HSP90 (Homo sapiens, UniProt P07900).
T1 construct: purchased Assay Design SPP-776F
As to the kind of experiment: HSP90 assay (chaperone luciferase refolding / competition binding fluorescence polarization). Particulars: Table B does not say which of the two described. Here is the method:
(a) An In Vitro Assay which Determines the Ability of a Test Compound to Inhibit Hsp90 Chaperone Activity.
The Hsp90 chaperone assay was performed to measure the ability of HSP90 protein to refold the heat-denatured luciferase protein. HSP90 was first incubated with different concentrations of test compounds in denaturation buffer (25 mM Tris, pH7.5, 8 mM MgSO4, 0.01% bovine gamma globulin and 10% glycerol) at room temperature for 30 min. Luciferase protein was added to denaturation mix and incubated at 50° C. for 8 min. The final concentration of HSP90 and luciferase in denaturation mixture were 0.375 μM and 0.125 μM respectively. A 5 μl sample of the denatured mix was diluted into 25 μl of renaturation buffer (25 mM Tris, pH7.5, 8 mM MgSO4, 0.01% bovine gamma globulin and 10% glycerol, 0.5 mM ATP, 2 mM DTT, 5 mM KCl, 0.3 μM HSP70 and 0.15 μM HSP40). The renaturation reaction was incubated at room temperature for 150 min, followed by dilution of 10 μl of the renatured sample into 90 μl of luciferin reagent (Luclite, PerkinElmer Life Science). The mixture was incubated at dark for 5 min before reading the luminescence signal on a TopCount plate reader (PerkinElmer Life Science).
(b) HSP90 Competition Binding (Fluorescence Polarization) Assay.
A fluorescein isothiocyanate (FITC) labeled GM was purchase from InvivoGen (ant-fgl-1). The interaction between HSP90 and labeled GM forms the basis for the fluorescence polarization assay. A free and fast-tumbling FITC labeled GM emits random light with respect to the plane of polarization plane of excited light, resulting in a lower polarization degree (mP) value. When GM is bound to HSP90, the complex tumble slower and the emitted light is polarized, resulting in a higher mP value. This competition binding assay was performed in 96-well plate and with each assay contained 10 and 50 nM of labeled GM and purified HSP90 protein (Assay Design, SPP-776F) respectively. The assay buffer contained 20 mM HEPES (pH 7.3), 50 mM KCl, 1 mM DTT, 50 mM MgCl2, 20 mM Na2MoO4, 0.01% NP40 with 0.1 mg/ml bovine gamma-globulin. Compounds are diluted in DMSO and added to the final assay before labeled GM with concentration range from 20 uM to 2 nM. mP value was determined by BioTek Synergy II with background subtraction after 24 hours of incubation at 4° C.
(Fluorescence polarisation rises when a labelled molecule tumbles more slowly, as on binding a larger partner.)

Data set [1] relates to HDAC (HeLa nuclear extract). As to the kind of experiment: HDAC fluorimetric assay (inhibition of HDAC enzymatic activity). Particulars: HDAC fluorimetric assay kit. Type of data set: biochemical. Here is the method: (c) An In Vitro Assay which Determines the Ability of a Test Compound to Inhibit HDAC Enzymatic Activity.
HDAC inhibitors were screened using an HDAC fluorimetric assay kit (AK-500, Biomol, Plymouth Meeting, Pa.). Test compounds were dissolved in dimethylsulphoxide (DMSO) to give a 20 mM working stock concentration. Fluorescence was measured on a WALLAC Victor 2 plate reader and reported as relative fluorescence units (RFU). Data were plotted using GraphPad Prism (v4.0a) and IC50's calculated using a sigmoidal dose response curve fitting algorithm. Each assay was setup as follows: Defrosted all kit components and kept on ice until use. Diluted HeLa nuclear extract 1:29 in Assay Buffer (50 mM Tris/Cl, pH 8.0, 137 mM NaCl, 2.7 mM KCl, 1 mM MgCl2). Prepared dilutions of Trichostatin A (TSA, positive control) and tested compounds in assay buffer (5× of final concentration). Diluted Fluor de Lys™ Substrate in assay buffer to 100 uM (50 fold=2× final). Diluted Fluor de Lys™ developer concentrate 20-fold (e.g. 50 μl plus 950 μl Assay Buffer) in cold assay buffer. Second, diluted the 0.2 mM Trichostatin A 100-fold in the 1× Developer (e.g. 10 μl in 1 ml; final Trichostatin A concentration in the 1× Developer=2 μM; final concentration after addition to HDAC/Substrate reaction=1 μM). Added Assay buffer, diluted trichostatin A or test inhibitor to appropriate wells of the microtiter plate. Added diluted HeLa extract or other HDAC sample to all wells except for negative controls. Allowed diluted Fluor de Lys™ Substrate and the samples in the microtiter plate to equilibrate to assay temperature (e.g. 25 or 37° C. Initiated HDAC reactions by adding diluted substrate (25 μl) to each well and mixing thoroughly. Allowed HDAC reactions to proceed for 1 hour and then stopped them by addition of Fluor de Lys™ Developer (50 μl). Incubated plate at room temperature (25° C.) for 10-15 min. Read samples in a microtiter-plate reading fluorimeter capable of excitation at a wavelength in the range 350-380 nm and detection of emitted light in the range 440-460 nm.

pIC50: −log10 of the molar value.

Broadly, the pIC50 is the negative decadic logarithm of the IC50, by convention in mol/L. One may read the melting point as the temperature, or range, at which the solid turns liquid. Compound `CCNC(=O)c1noc(-c2cc(C(C)C)c(O)cc2O)c1-c1ccc(CN(C)CCC(=O)NO)cc1` [Compound 16, 5-(2,4-dihydroxy-5-isopropylphenyl)-N-ethyl-4-(4-(((3-(hydroxyamino)-3-oxopropyl)(methyl)amino)methyl)phenyl)isoxazole-3-carboxamide] returned a melting point of 120 to 122 °C. Moreover, the pIC50 on HSP90 was at least 7.00. For the same compound, the pIC50 in data set [1] is at most 5.00.
On to `CC(C)c1cc(-c2onc(C(=O)NCCCC(=O)NO)c2-c2ccc(CN3CCOCC3)cc2)c(O)cc1O` [Compound 25, 5-(2,4-Dihydroxy-5-isopropylphenyl)-N-(4-(hydroxyamino)-4-oxobutyl)-4-(4-(morpholinomethyl)phenyl)isoxazole-3-carboxamide], for which the melting point fell in the range of 129 to 130 °C. Moreover, the pIC50 on HSP90 was at least 7.00.
For `CCNC(=O)c1noc(-c2cc(C(C)C)c(O)cc2O)c1-c1ccc(CN(C)CCCC(=O)NO)cc1` [Compound 18, 5-(2,4-dihydroxy-5-isopropylphenyl)-N-ethyl-4-(4-(((4-(hydroxyamino)-4-oxobutyl)(methyl)amino)methyl)phenyl)isoxazole-3-carboxamide], the melting point is 132 to 134 °C. The pIC50 at HSP90 was at least 7.00. Moreover, the pIC50 in data set [1] was at most 5.00.
For `COc1ccc(-c2c(C(=O)N3CCN(c4ncc(C(=O)NO)cn4)CC3)noc2-c2cc(Cl)c(O)cc2O)cc1` [Compound 11, 2-(4-(5-(5-chloro-2,4-dihydroxyphenyl)-4-(4-methoxyphenyl)isoxazole-3-carbonyl)piperazin-1-yl)-N-hydroxypyrimidine-5-carboxamide], the melting point is 186 to 190 °C. Moreover, the pIC50 at HSP90 was 6.00 to 7.00. This compound also had a pIC50 in data set [1] of at least 7.00.
For `CCNC(=O)c1noc(-c2cc(Cl)c(O)cc2O)c1-c1ccc(OCCCCCCC(=O)NO)cc1` [Compound 4, 5-(5-chloro-2,4-dihydroxyphenyl)-N-ethyl-4-(4-(7-(hydroxylamino)-7-oxoheptyloxy)phenyl)isoxazole-3-carboxamide], the values for the pIC50 (on HSP90; in data set [1]) were at least 7.00 and 6.00 to 7.00, respectively.
Compound `CC(C)c1cc(-c2onc(C(=O)NCCCCCCC(=O)NO)c2-c2ccc(CN3CCOCC3)cc2)c(O)cc1O` [Compound 28, 5-(2,4-Dihydroxy-5-isopropylphenyl)-N-(7-(hydroxyamino)-7-oxoheptyl)-4-(4-(morpholinomethyl)phenyl)isoxazole-3-carboxamide] showed a melting point of 109 to 111 °C. The negative logarithm of the IC50 (pIC50) on HSP90 is at least 7.00. In data set [1], this compound gave a pIC50 of at least 7.00.
On to `CCNC(=O)c1noc(-c2cc(C(C)C)c(O)cc2O)c1-c1ccc(CNCCCCCCC(=O)NO)cc1` [Compound 23, 5-(2,4-dihydroxy-5-isopropylphenyl)-N-ethyl-4-(4-((7-(hydroxyamino)-7-oxoheptylamino)methyl)phenyl)isoxazole-3-carboxamide], for which the melting point is 126 to 128 °C. For the same compound, the pIC50 at HSP90 is at least 7.00. Moreover, the negative-log IC50 (pIC50) in data set [1] was 6.00 to 7.00.
Taken in the same sequence, the figures for `CCNC(=O)c1noc(-c2cc(C(C)C)c(O)cc2O)c1-c1ccc(CNCCCCCC(=O)NO)cc1` [Compound 21, 5-(2,4-Dihydroxy-5-isopropylphenyl)-N-ethyl-4-(4-((6-(hydroxyamino)-6-oxohexylamino)methyl)phenyl)isoxazole-3-carboxamide] were 134 to 135 °C, at least 7.00 and 5.00 to 6.00.
Turning to `COc1ccc(-c2c(C(=O)NCCCCCC(=O)NO)noc2-c2cc(Cl)c(O)cc2O)cc1` [Compound 8, 5-(5-chloro-2,4-dihydroxyphenyl)-N-(6-(hydroxylamino)-6-oxohexyl)-4-(4-methoxyphenyl)isoxazole-3-carboxamide], the results for the pIC50 (on HSP90; in data set [1]) were at least 7.00 and 6.00 to 7.00, respectively.
`CCNC(=O)c1noc(-c2cc(C(C)C)c(O)cc2O)c1-c1ccc(CNCCC(=O)NO)cc1` [Compound 15, 5-(2,4-dihydroxy-5-isopropylphenyl)-N-ethyl-4-(4-((3-(hydroxyamino)-3-oxopro-pylamino)methyl)phenyl)isoxazole-3-carboxamide] came in with a melting point of 146 to 148 °C. Moreover, on HSP90, the pIC50 was at least 7.00. For the same compound, in data set [1], the pIC50 is 5.00 to 6.00.
In the case of `COc1ccc(-c2c(C(=O)NCCCC(=O)NO)noc2-c2cc(Cl)c(O)cc2O)cc1` [Compound 6, 5-(5-chloro-2,4-dihydroxyphenyl)-N-(4-(hydroxyamino)-4-oxobutyl)-4-(4-methoxyphenyl)isoxazole-3-carboxamide], the results for the pIC50 (on HSP90; in data set [1]) were at least 7.00 and 5.00 to 6.00, respectively.
Taken in the same sequence, the figures for `CCNC(=O)c1noc(-c2cc(Cl)c(O)cc2O)c1-c1ccc(OCCCC(=O)NO)cc1` [Compound 1, 5-(5-chloro-2,4-dihydroxyphenyl)-N-ethyl-4-(4-(4-(hydroxyamino)-4-oxobutoxy)phenyl)isoxazole-3-carboxamide] were at least 7.00 and 6.00 to 7.00.
In the case of `COc1ccc(-c2c(C(=O)NCCCCCCCC(=O)NO)noc2-c2cc(Cl)c(O)cc2O)cc1` [Compound 10, 5-(5-chloro-2,4-dihydroxyphenyl)-N-(8-(hydroxylamino)-8-oxooctyl)-4-(4-methoxyphenyl)isoxazole-3-carboxamide], the pIC50 (on HSP90; in data set [1]) was at least 7.00 each time.
As for `COc1ccc(-c2c(C(=O)NCCCCCCC(=O)NO)noc2-c2cc(Cl)c(O)cc2O)cc1` [Compound 9, 5-(5-chloro-2,4-dihydroxyphenyl)-N-(7-(hydroxylamino)-7-oxoheptyl)-4-(4-methoxyphenyl)isoxazole-3-carboxamide], the pIC50 (on HSP90; in data set [1]) was at least 7.00 each time.
For the compound `CCNC(=O)c1noc(-c2cc(Cl)c(O)cc2O)c1-c1ccc(OCCCCC(=O)NO)cc1` [Compound 2, 5-(5-Chloro-2,4-dihydroxyphenyl)-N-ethyl-4-(4-(5-(hydroxyamino)-5-oxopentyloxy)phenyl)isoxazole-3-carboxamide], the pIC50 at HSP90 is at least 7.00; in data set [1], 5.00 to 6.00.
In the same order, the values of `CCNC(=O)c1noc(-c2cc(Cl)c(O)cc2O)c1-c1ccc(OCCCCCC(=O)NO)cc1` [Compound 3, 5-(5-Chloro-2,4-dihydroxyphenyl)-N-ethyl-4-(4-(6-(hydroxyamino)-6-oxohexyloxy)phenyl)isoxazole-3-carboxamide] are at least 7.00 and 6.00 to 7.00.
Taken in the same sequence, the figures for `COc1ccc(-c2c(C(=O)NCCC(=O)NO)noc2-c2cc(Cl)c(O)cc2O)cc1` [Compound 5, 5-(5-chloro-2,4-dihydroxyphenyl)-N-(3-(hydroxyl-amino)-3-oxopropyl)-4-(4-methoxyphenyl)isoxazole-3-carboxamide] were at least 7.00 and 5.00 to 6.00.

The values are drawn from US20090076006A1, “HSP90 INHIBITORS CONTAINING A ZINC BINDING MOIETY” (priority 2007, published 2009).
